The source of these data is ChEMBL document CHEMBL1255213, “Bottromycin derivatives: efficient chemical modifications of the ester moiety and evaluation of anti-MRSA and anti-VRE activities” (2010).

Common to all, as to format: functional
Assay [1] concerns Staphylococcus aureus. Description: Antimicrobial activity against Staphylococcus aureus FDA209P by standard serial-dilution technique.
For assay [2], the system named is Staphylococcus aureus. Kind of assay: Antimicrobial activity against methicillin-resistant Staphylococcus aureus assessed as rate of residual activity. Set-up: concentration or dose not given beside the values.
For assay [3], the system named is Staphylococcus aureus. Kind of assay: Antimicrobial activity against methicillin-resistant Staphylococcus aureus HH1 by standard serial-dilution technique.
Assay [4] concerns Staphylococcus aureus. Description: Antimicrobial activity against Staphylococcus aureus Smith by standard serial-dilution technique.
For assay [5], the system named is Enterococcus faecium. Kind of assay: Antimicrobial activity against Enterococcus faecium NCTC 12203 by standard serial-dilution technique.
The test system of assay [6] is Enterococcus faecium. Description: Antimicrobial activity against Enterococcus faecium NCTC 12201 by standard serial-dilution technique.
The subject of assay [7] is Staphylococcus aureus. Kind of assay: Antimicrobial activity against methicillin-resistant Staphylococcus aureus 92-1191 by standard serial-dilution technique.

In brackets after ≈: the same amount, converted by molar mass.

On to `CC(C)[C@@H]1NC(=O)[C@@H]2[C@H](C)CCN2C(=O)CN/C(=N\[C@H](C(=O)N[C@H](C(=O)N[C@H](CNC(=O)NCc2ccccc2)c2nccs2)[C@@H](C)c2ccccc2)C(C)(C)C)[C@H](C(C)(C)C)NC1=O`, for which the minimal inhibitory concentration (MIC) in the assay with Staphylococcus aureus [1] came to 8 µg/mL (≈ 8.76 µM); against Staphylococcus aureus [3] it was 16 µg/mL (≈ 17.5 µM); against Staphylococcus aureus [4] it was 16 µg/mL (≈ 17.5 µM); with Enterococcus faecium [5], 4 µg/mL (≈ 4.38 µM); against Enterococcus faecium [6], 8 µg/mL (≈ 8.76 µM); in the assay on Staphylococcus aureus [7], 16 µg/mL (≈ 17.5 µM). The Activity with Staphylococcus aureus [2] was determined as 100%.

With `CCSC(=O)C[C@@H](NC(=O)[C@@H](NC(=O)[C@@H](/N=C1\NCC(=O)N2CC[C@@H](C)[C@H]2C(=O)N[C@@H](C(C)C)C(=O)N[C@H]1C(C)(C)C)C(C)(C)C)[C@@H](C)c1ccccc1)c1nccs1`, the MIC is no more than 0.25 µg/mL in the assay on Staphylococcus aureus [1]; no more than 0.25 µg/mL in the assay on Staphylococcus aureus [3]; 0.5 µg/mL (≈ 0.586 µM) in the assay on Staphylococcus aureus [4]; no more than 0.25 µg/mL with Enterococcus faecium [5]; no more than 0.25 µg/mL in the assay with Enterococcus faecium [6]; 0.5 µg/mL (≈ 0.586 µM) in the assay with Staphylococcus aureus [7]. Moreover, in the assay on Staphylococcus aureus [2], the Activity stood at 0%.

For `CCCSC(=O)C[C@@H](NC(=O)[C@@H](NC(=O)[C@@H](/N=C1\NCC(=O)N2CC[C@@H](C)[C@H]2C(=O)N[C@@H](C(C)C)C(=O)N[C@H]1C(C)(C)C)C(C)(C)C)[C@@H](C)c1ccccc1)c1nccs1`, the MIC was 0.5 µg/mL (≈ 0.577 µM) in the assay with Staphylococcus aureus [1]; no more than 0.25 µg/mL against Staphylococcus aureus [3]; 0.5 µg/mL (≈ 0.577 µM) against Staphylococcus aureus [4]; no more than 0.25 µg/mL against Enterococcus faecium [5]; 1 µg/mL (≈ 1.15 µM) against Enterococcus faecium [6]; 1 µg/mL (≈ 1.15 µM) against Staphylococcus aureus [7]. In addition, the Activity in the assay on Staphylococcus aureus [2] is on record as 0%.

Take `CC(C)SC(=O)C[C@@H](NC(=O)[C@@H](NC(=O)[C@@H](/N=C1\NCC(=O)N2CC[C@@H](C)[C@H]2C(=O)N[C@@H](C(C)C)C(=O)N[C@H]1C(C)(C)C)C(C)(C)C)[C@@H](C)c1ccccc1)c1nccs1`: the MIC is 0.5 µg/mL (≈ 0.577 µM) in the assay with Staphylococcus aureus [1]; 0.5 µg/mL (≈ 0.577 µM) in the assay on Staphylococcus aureus [3]; 0.5 µg/mL (≈ 0.577 µM) in the assay on Staphylococcus aureus [4]; no more than 0.25 µg/mL against Enterococcus faecium [5]; 1 µg/mL (≈ 1.15 µM) with Enterococcus faecium [6]; 1 µg/mL (≈ 1.15 µM) against Staphylococcus aureus [7]. In the assay with Staphylococcus aureus [2], the Activity is 0%.

With `CCCC(=O)C[C@@H](NC(=O)[C@@H](NC(=O)[C@@H](/N=C1\NCC(=O)N2CC[C@@H](C)[C@H]2C(=O)N[C@@H](C(C)C)C(=O)N[C@H]1C(C)(C)C)C(C)(C)C)[C@@H](C)c1ccccc1)c1nccs1`, the MIC is 1 µg/mL (≈ 1.2 µM) against Staphylococcus aureus [1]; 1 µg/mL (≈ 1.2 µM) against Staphylococcus aureus [3]; 1 µg/mL (≈ 1.2 µM) in the assay on Staphylococcus aureus [4]; 0.5 µg/mL (≈ 0.599 µM) with Enterococcus faecium [5]; 2 µg/mL (≈ 2.39 µM) with Enterococcus faecium [6]; 2 µg/mL (≈ 2.39 µM) with Staphylococcus aureus [7]. Besides, the Activity with Staphylococcus aureus [2] worked out at 100%.

On to `CCC(=O)C[C@@H](NC(=O)[C@@H](NC(=O)[C@@H](/N=C1\NCC(=O)N2CC[C@@H](C)[C@H]2C(=O)N[C@@H](C(C)C)C(=O)N[C@H]1C(C)(C)C)C(C)(C)C)[C@@H](C)c1ccccc1)c1nccs1`, for which the MIC in the assay with Staphylococcus aureus [1] is 1 µg/mL (≈ 1.22 µM); against Staphylococcus aureus [3] it was 2 µg/mL (≈ 2.44 µM); against Staphylococcus aureus [4], 1 µg/mL (≈ 1.22 µM); with Enterococcus faecium [5], 1 µg/mL (≈ 1.22 µM); in the assay on Enterococcus faecium [6], 2 µg/mL (≈ 2.44 µM); against Staphylococcus aureus [7] it was 2 µg/mL (≈ 2.44 µM). For the same compound, the Activity with Staphylococcus aureus [2] is listed as 100%.
